Experimental findings from ChEMBL document CHEMBL1201862, “PubChem BioAssay data set” (2004) are described below.

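Interpolation was linear, between the two tested concentrations surrounding the appropriate level; five concentrations were tested over 48 hours in 96-well plates. At the GI50, growth is halved.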 The source made the active and inactive calls. No stated cut-off is given here; in the data, active = GI50 up to about 1.1 µM and inactive = higher.

Test systems include DU-145; MOLT-4; OVCAR-3; HOP-62; U-251; HCC 2998; SNB-19; SW-620; HCT-15; UACC-257; MDA-MB-435; RPMI-8226; MCF7; KM12; MDA-MB-231; UACC-62; SK-MEL-28; SK-MEL-2; LOX IMVI; NCI/ADR-RES.
What all share (assay): inhibition of tumour cell growth, NCI panel, 48 h

In the case of `CCC(C)c1cnc(CC(C)C)c(=O)[nH]1` (centres undefined), the GI50 in the assay with DU-145, in the assay with MOLT-4, in the assay with OVCAR-3, in the assay on HOP-62, in the assay with U-251 and in the assay on HCC 2998 was > 100 µM (inactive) each time. For the same compound, the GI50 is > 100 µM (inactive) in the assay on SNB-19; > 100 µM (inactive) in the assay on SW-620; over 100 µM with HCT-15; > 100 µM (inactive) with UACC-257; > 100 µM (inactive) with MDA-MB-435; > 100 µM (inactive) in the assay with RPMI-8226. Besides, the GI50 in the assay on MCF7, in the assay on KM12, with MDA-MB-231, in the assay on UACC-62, in the assay with SK-MEL-28 and in the assay on SK-MEL-2 was > 100 µM (inactive) each time. The GI50 in the assay with LOX IMVI is > 100 µM (inactive).

Turning to `[N-]=[N+]=Nc1ccc(NCCCCCC(=O)ON2C(=O)CCC2=O)c([N+](=O)[O-])c1`, the GI50 in the assay on DU-145 is > 100 µM (inactive); with MOLT-4, 15.4 µM (inactive); with OVCAR-3 it was 54.3 µM (inactive); in the assay on NCI/ADR-RES, 31.1 µM (inactive); with HOP-62, 72.9 µM (inactive); with U-251, > 100 µM (inactive). Also, the GI50 in the assay on SNB-19 is > 100 µM (inactive); in the assay with SW-620, 60.1 µM (inactive); in the assay with HCT-15 it was over 100 µM; in the assay with UACC-257 it was > 100 µM (inactive); with MDA-MB-435, 48.1 µM (inactive); in the assay with MCF7, > 100 µM (inactive). Also, the GI50 with KM12 is 46.2 µM (inactive); with MDA-MB-231, 77.1 µM (inactive); in the assay on UACC-62, 33.1 µM (inactive); in the assay on SK-MEL-28, 74.1 µM (inactive); with SK-MEL-2 it was 42.4 µM (inactive); with LOX IMVI, 48.8 µM (inactive).

Consider `COC(=O)C(/C(=N/N)C(=O)Nc1cc(Cl)c(Cl)cc1Cl)c1nc2ccc(Cl)cc2nc1O` (centres undefined), for which the GI50 is 0.0515 µM (active) with MOLT-4; 95.3 µM (inactive) in the assay on OVCAR-3; 84.5 µM (inactive) in the assay with NCI/ADR-RES; > 100 µM (inactive) in the assay with HOP-62; > 100 µM (inactive) in the assay on U-251; > 100 µM (inactive) with SW-620. The GI50 was over 100 µM in the assay with HCT-15; > 100 µM (inactive) with UACC-257; > 100 µM (inactive) with MDA-MB-435; > 100 µM (inactive) with RPMI-8226; > 100 µM (inactive) with MCF7; > 100 µM (inactive) in the assay on KM12. The GI50 with MDA-MB-231, with UACC-62, in the assay with SK-MEL-28, with SK-MEL-2 and in the assay with LOX IMVI was > 100 µM (inactive) each time.

Take `COc1ccc(-c2c(C#N)c(O)n(NS(=O)(=O)c3ccc(C)cc3)c(=O)c2C#N)cc1`: the GI50 in the assay with MOLT-4 is 20.5 µM (inactive); with NCI/ADR-RES, 61.9 µM (inactive); in the assay with HOP-62 it was 99.3 µM (inactive); in the assay with U-251, 67.8 µM (inactive); in the assay on HCC 2998, 45.9 µM (inactive); in the assay on SNB-19, 83.2 µM (inactive). Also, the GI50 was 57.4 µM (inactive) in the assay on SW-620; 49.1 µM with HCT-15; > 100 µM (inactive) in the assay on UACC-257; 75 µM (inactive) in the assay with MDA-MB-435; 19.5 µM (inactive) in the assay on RPMI-8226; 48.6 µM (inactive) in the assay on MCF7. Further, the GI50 was > 100 µM (inactive) in the assay on KM12; > 100 µM (inactive) in the assay with MDA-MB-231; 81.7 µM (inactive) with UACC-62; 82.8 µM (inactive) in the assay with SK-MEL-28; > 100 µM (inactive) in the assay with SK-MEL-2; 45.4 µM (inactive) in the assay on LOX IMVI.

As to `CN(C)CCCOc1nc2c(c(=O)n(C)c(=O)n2C)n1C.SC1=NC=NC2=NC=NC12`, the GI50 in the assay on DU-145 is 0.692 µM (active); in the assay with MOLT-4, 0.43 µM (active); in the assay on OVCAR-3, 0.656 µM (active); in the assay with NCI/ADR-RES, 4.32 µM (inactive); in the assay on HOP-62 it was 18.5 µM (inactive); in the assay with U-251, 18.1 µM (inactive). Besides, the GI50 in the assay with SNB-19 was 88.5 µM (inactive); with SW-620, 4.45 µM (inactive); in the assay on HCT-15, 3.14 µM; in the assay with UACC-257, 6 µM (inactive); in the assay with MDA-MB-435 it was 1.7 µM (inactive); in the assay on RPMI-8226 it was 0.757 µM (active). The GI50 in the assay on MCF7 was 2.09 µM (inactive); in the assay on KM12 it was 3.85 µM (inactive); in the assay on MDA-MB-231, 1.69 µM (inactive); in the assay on UACC-62, 1.14 µM (inactive); with SK-MEL-28, 55.5 µM (inactive); in the assay with SK-MEL-2 it was 6.52 µM (inactive). For the same compound, the GI50 with LOX IMVI was 0.303 µM (active).

For the compound `Nc1ncnc2c(C3OC(CO)C(O)C3O)c[nH]c12` (centres undefined), the GI50 in the assay with DU-145 was 0.006 µM (active); in the assay with MOLT-4, 0.00336 µM (active); in the assay on U-251, 0.00847 µM (active); with HCC 2998, 0.00621 µM (active); in the assay on SNB-19, 0.0131 µM (active); in the assay on SW-620, 0.00195 µM (active). The GI50 in the assay on HCT-15 was 0.00372 µM; in the assay with UACC-257 it was 0.0185 µM (active); in the assay on MDA-MB-435, 0.0314 µM (active); with RPMI-8226 it was 0.00256 µM (active); in the assay on MCF7, 0.0152 µM (active); in the assay on KM12, 0.00533 µM (active). Besides, the GI50 in the assay with MDA-MB-231 was 0.0078 µM (active); in the assay with UACC-62, 0.00718 µM (active); in the assay on SK-MEL-28 it was < 0.0218 µM (active); in the assay on SK-MEL-2, 0.01 µM (active); in the assay on LOX IMVI, 0.00282 µM (active).

For the compound `COC(=O)/C=C1\C(CO[Si](C)(C)C(C)(C)C)OC(n2cc(C)c(=O)n(C)c2=O)C1O[Si](C)(C)C(C)(C)C` (centres undefined), the GI50 with DU-145 is > 100 µM (inactive); with MOLT-4, > 100 µM (inactive); in the assay with OVCAR-3, > 100 µM (inactive); in the assay with NCI/ADR-RES it was > 100 µM (inactive); with HOP-62, > 100 µM (inactive); with U-251, 81.7 µM (inactive). The GI50 is > 100 µM (inactive) with SNB-19; > 100 µM (inactive) with SW-620; over 100 µM in the assay with HCT-15; 62.4 µM (inactive) in the assay on MDA-MB-435; 78 µM (inactive) with RPMI-8226; 27 µM (inactive) with MCF7. For the same compound, the GI50 in the assay on KM12 was > 100 µM (inactive); in the assay on MDA-MB-231 it was > 100 µM (inactive); in the assay on UACC-62, > 100 µM (inactive); in the assay on SK-MEL-28, > 100 µM (inactive); with SK-MEL-2, > 100 µM (inactive); in the assay with LOX IMVI, 89.5 µM (inactive).

As to `C/C=C/C(C#N)(/C=C/c1ccccc1)OP1(=O)OC(c2ccccc2)C(C)N1C` (centres undefined), the GI50 was 30 µM (inactive) in the assay on DU-145; 10.9 µM (inactive) in the assay with MOLT-4; 19.5 µM (inactive) in the assay on OVCAR-3; 19.4 µM (inactive) in the assay with HOP-62; 17.2 µM (inactive) in the assay on U-251; 14 µM (inactive) in the assay with HCC 2998. The GI50 was 20.7 µM (inactive) in the assay with SNB-19; 16.1 µM (inactive) in the assay on SW-620; 19.1 µM (inactive) with UACC-257; 18.2 µM (inactive) in the assay on MDA-MB-435; 15.2 µM (inactive) with RPMI-8226; 22.8 µM (inactive) with MCF7. For the same compound, the GI50 in the assay on KM12 was 19 µM (inactive); in the assay with MDA-MB-231, 17.5 µM (inactive); in the assay on UACC-62, 17.7 µM (inactive); with SK-MEL-28 it was 17.1 µM (inactive); with SK-MEL-2, 18.6 µM (inactive); in the assay on LOX IMVI, 18.2 µM (inactive).

Regarding `CCN(CC(COc1ccc2c(c1)[n+]([O-])nc(N)[n+]2[O-])OC(C)=O)C(C)=O` (centres undefined), the GI50 in the assay with DU-145 was > 10 µM (inactive); with MOLT-4, 20.8 µM (inactive); in the assay on OVCAR-3 it was 76.2 µM (inactive); in the assay with NCI/ADR-RES it was > 100 µM (inactive); in the assay on HOP-62, 45.9 µM (inactive); in the assay with U-251 it was > 100 µM (inactive). The GI50 in the assay with SNB-19 is > 100 µM (inactive); with SW-620, > 100 µM (inactive); in the assay with HCT-15 it was over 100 µM; in the assay with UACC-257 it was 76.7 µM (inactive); with MDA-MB-435, 90.4 µM (inactive); with RPMI-8226 it was > 100 µM (inactive). Further, the GI50 in the assay with MCF7 was > 100 µM (inactive); with KM12 it was 95.5 µM (inactive); with MDA-MB-231, > 100 µM (inactive); with UACC-62 it was 29.6 µM (inactive); in the assay on SK-MEL-28, > 100 µM (inactive); in the assay with SK-MEL-2 it was > 100 µM (inactive). In the assay with LOX IMVI, the GI50 was 58.3 µM (inactive).

As to `Cc1ncc([N+](=O)[O-])n1CCN(C)CCCCn1ccnc1[N+](=O)[O-]`, the GI50 in the assay with DU-145, in the assay on MOLT-4, in the assay on OVCAR-3, in the assay on HOP-62, in the assay on U-251 and with HCC 2998 was > 100 µM (inactive) in each case. The GI50 in the assay with SNB-19 is > 100 µM (inactive); in the assay with SW-620, > 100 µM (inactive); with HCT-15, over 100 µM; in the assay on UACC-257, > 100 µM (inactive); in the assay with MDA-MB-435, > 100 µM (inactive); in the assay on RPMI-8226, > 100 µM (inactive). The GI50 with MCF7, in the assay with KM12, in the assay on MDA-MB-231, in the assay with UACC-62, in the assay on SK-MEL-28 and in the assay with SK-MEL-2 was > 100 µM (inactive) in each case. Besides, the GI50 in the assay on LOX IMVI is > 100 µM (inactive).

Turning to `O=S(=O)(N/C(=N\O)Nc1ccc(Cl)cc1)c1cc(C(F)(F)F)cc(C(F)(F)F)c1`, the GI50 in the assay with DU-145 is 21.3 µM (inactive); with MOLT-4, 19 µM (inactive); in the assay with OVCAR-3, 16 µM (inactive); in the assay on NCI/ADR-RES, 24.9 µM (inactive); with HOP-62 it was 18.7 µM (inactive); in the assay with U-251, 16.6 µM (inactive). In addition, the GI50 was 17.1 µM (inactive) with SNB-19; 34.3 µM (inactive) in the assay on SW-620; 19.9 µM with HCT-15; 20.9 µM (inactive) in the assay with UACC-257; 20.3 µM (inactive) with MDA-MB-435; 19.7 µM (inactive) with KM12. Also, the GI50 was 18.4 µM (inactive) in the assay with MDA-MB-231; 16.7 µM (inactive) in the assay with UACC-62; 19.2 µM (inactive) with SK-MEL-28; 17.4 µM (inactive) with SK-MEL-2; 18.5 µM (inactive) in the assay on LOX IMVI.
